Earlier results, collected in patent publication US20210346403A1, “USE OF COMPOUNDS THAT TARGET MINERALOCORTICOID RECEPTORS FOR TREATING COVID-19” (priority 2020, published 2021).

Legend:
[1] = molecular target: T1, mineralocorticoid receptor (MR) (Homo sapiens, UniProt P08235); details: versus other steroid receptors, in words
T1 sequence (P08235 1-984): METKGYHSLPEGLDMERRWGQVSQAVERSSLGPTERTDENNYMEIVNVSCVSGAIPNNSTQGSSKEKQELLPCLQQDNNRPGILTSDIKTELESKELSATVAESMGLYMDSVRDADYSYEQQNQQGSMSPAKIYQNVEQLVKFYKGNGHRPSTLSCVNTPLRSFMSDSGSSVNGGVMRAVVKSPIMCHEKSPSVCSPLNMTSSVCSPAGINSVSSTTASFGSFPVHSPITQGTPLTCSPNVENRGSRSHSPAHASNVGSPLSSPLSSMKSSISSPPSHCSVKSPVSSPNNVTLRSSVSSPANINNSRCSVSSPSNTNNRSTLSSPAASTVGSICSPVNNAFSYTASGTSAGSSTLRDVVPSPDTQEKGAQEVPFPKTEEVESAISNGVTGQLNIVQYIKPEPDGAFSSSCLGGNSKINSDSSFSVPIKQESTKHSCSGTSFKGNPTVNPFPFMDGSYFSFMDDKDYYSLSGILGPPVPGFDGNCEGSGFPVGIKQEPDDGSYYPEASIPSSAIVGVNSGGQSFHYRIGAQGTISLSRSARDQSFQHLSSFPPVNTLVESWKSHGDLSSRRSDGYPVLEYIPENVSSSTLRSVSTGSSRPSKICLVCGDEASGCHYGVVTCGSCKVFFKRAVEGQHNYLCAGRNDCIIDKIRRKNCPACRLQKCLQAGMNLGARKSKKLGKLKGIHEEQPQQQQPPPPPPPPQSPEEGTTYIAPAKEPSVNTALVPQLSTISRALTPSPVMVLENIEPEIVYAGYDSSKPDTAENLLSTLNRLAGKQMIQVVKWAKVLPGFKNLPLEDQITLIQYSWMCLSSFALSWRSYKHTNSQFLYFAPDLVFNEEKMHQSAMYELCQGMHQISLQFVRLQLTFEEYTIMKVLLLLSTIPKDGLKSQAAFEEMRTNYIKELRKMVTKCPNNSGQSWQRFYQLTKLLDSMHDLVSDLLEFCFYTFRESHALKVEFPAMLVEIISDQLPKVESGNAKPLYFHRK

progestin receptor = molecular target: T2, progestin receptor (Homo sapiens, UniProt P06401); details: fold lower affinity; comparator not stated explicitly (spironolactone or MR implied)
T2 sequence (P06401 1-933): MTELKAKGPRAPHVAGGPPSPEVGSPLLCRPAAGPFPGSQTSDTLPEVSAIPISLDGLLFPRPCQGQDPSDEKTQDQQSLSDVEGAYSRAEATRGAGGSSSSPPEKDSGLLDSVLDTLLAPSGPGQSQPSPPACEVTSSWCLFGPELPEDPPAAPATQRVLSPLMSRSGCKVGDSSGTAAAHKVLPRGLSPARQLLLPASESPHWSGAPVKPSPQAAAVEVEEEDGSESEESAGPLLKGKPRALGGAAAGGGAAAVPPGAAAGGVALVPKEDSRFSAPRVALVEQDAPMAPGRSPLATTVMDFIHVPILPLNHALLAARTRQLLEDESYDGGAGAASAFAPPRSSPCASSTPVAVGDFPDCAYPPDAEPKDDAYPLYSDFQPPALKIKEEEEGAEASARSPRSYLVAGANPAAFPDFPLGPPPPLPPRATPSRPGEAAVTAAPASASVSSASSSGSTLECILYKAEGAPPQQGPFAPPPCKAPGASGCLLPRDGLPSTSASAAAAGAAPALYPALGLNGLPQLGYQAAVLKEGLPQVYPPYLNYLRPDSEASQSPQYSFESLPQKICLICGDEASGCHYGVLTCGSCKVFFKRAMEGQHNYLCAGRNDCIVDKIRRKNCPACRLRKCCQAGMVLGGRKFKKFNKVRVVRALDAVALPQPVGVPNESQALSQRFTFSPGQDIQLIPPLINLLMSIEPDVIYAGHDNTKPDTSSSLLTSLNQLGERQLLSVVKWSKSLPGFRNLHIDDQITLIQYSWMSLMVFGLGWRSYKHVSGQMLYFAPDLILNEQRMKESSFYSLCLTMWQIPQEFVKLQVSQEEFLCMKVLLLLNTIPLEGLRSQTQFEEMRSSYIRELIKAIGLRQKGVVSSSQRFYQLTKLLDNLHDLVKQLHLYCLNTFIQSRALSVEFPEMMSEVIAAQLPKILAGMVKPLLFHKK

[2] = degraded by aminopeptidase A enzymes on red blood cells

CC(=O)S[C@@H]1CC2=CC(=O)CC[C@]2(C)[C@H]2CC[C@@]3(C)[C@@H](CC[C@@]34CCC(=O)O4)[C@H]12 [Spironolactone, spironolactone]
selectivity for the MR [1]: less selective for the MR

COC(=O)[C@@H]1CC2=CC(=O)CC[C@]2(C)[C@@]23O[C@@H]2C[C@@]2(C)[C@@H](CC[C@@]24CCC(=O)O4)[C@H]13 [Eplerenone, eplerenone]
lower affinity for the progestin receptor (progestin receptor): 500 fold

angiotensin-2 (DRVYIHPF; Angiotensin-2; UniProt P01019 25-32, looked up) [AngII]
half-life [2]: 30 s
